The results in this text go back to US20030224942A1, “Alkylamino-1,3,5-triazines, processes for their preparation and their use as herbicides and plant growth regulators” (priority 2001, published 2003).

Assay [1] has as its system Cyperus spp., Echinochloa spp., Digitaria spp., Sagitaria spp. and Scirpus spp. The assay is described as follows: Action on harmful plants in rice (paddy rice conditions, visual scoring). It counts as in vivo, typical rice weeds (gramineous and broad-leaved). Conditions: applied into the dammed water, visual scoring about three weeks after application. An excerpt:
Transplanted and sown rice and also typical rice weeds (gramineous and broad-leaved) are cultivated in closed plastic pots in a greenhouse to the three-leaf stage (Echinochloa crus-galli 1.5-leaf) under paddy rice conditions (dammed height of water: 2-3 cm). This is followed by treatment with the compounds according to the invention. […] After this treatment, the test plants are set up in a greenhouse under optimum growth conditions and are maintained in this way throughout the test period.

The test system of assay [2] is Chenopodium spp., Papaver spp., Polygonum spp., Veronica spp. or Viola spp. The assay is described as follows: Post-emergence effect on weeds (greenhouse pot test, visual scoring). The following applies: treated at three-leaf stage; visual scoring after about 3 to 4 weeks; application rate of 0.5 kg and less of active substance per hectare. It counts as in vivo, monocotyledonous and dicotyledonous weeds.

Each structure is given as a SMILES string.

Turning to `Cc1nc(N)nc(NC(c2cccc(C(F)=C(F)F)c2)C2CC2)n1` (stereo not shown) [Product P4.1567], the “herbicidal activity against harmful plants which are typical for rice crops” value (shortened to “herbicidal activity … for rice crops”) in assay [1] is listed as “very good herbicidal activity”. In assay [2], the “herbicidal activity post-emergence against harmful plants” value (“herbicidal activity post-emergence” below) was “very good herbicidal activity”.

In the case of `Cc1nc(N)nc(NC(c2ccc(C(F)=C(F)F)cc2)C2CC2)n1` (stereo not shown) [Product P4.1568], in assay [1], the “herbicidal activity … for rice crops” value is recorded as “very good herbicidal activity”. In assay [2], the “herbicidal activity post-emergence” value is “very good herbicidal activity”.

`C#Cc1cccc(C(Nc2nc(C)nc(N)n2)C2CC2)c1` (stereo not shown) [Product P4.1579]: in assay [1], the “herbicidal activity … for rice crops” value was “very good herbicidal activity”. In assay [2], the “herbicidal activity post-emergence” value is reported as “very good herbicidal activity”.

As for `C#Cc1ccc(C(Nc2nc(C)nc(N)n2)C2CC2)cc1` (stereo not shown) [Product P4.1580], the “herbicidal activity … for rice crops” value in assay [1] was “very good herbicidal activity”. Besides, the “herbicidal activity post-emergence” value in assay [2] is recorded as “very good herbicidal activity”.

In the case of `CC#Cc1cccc(C(Nc2nc(C)nc(N)n2)C2CC2)c1` (stereo not shown) [Product P4.1582], the “herbicidal activity … for rice crops” value in assay [1] is “very good herbicidal activity”. Besides, the “herbicidal activity post-emergence” value in assay [2] is given as “very good herbicidal activity”.

As for `CC#Cc1ccc(C(Nc2nc(C)nc(N)n2)C2CC2)cc1` (stereo not shown) [Product P4.1583], the “herbicidal activity … for rice crops” value in assay [1] is given as “very good herbicidal activity”. Further, in assay [2], the “herbicidal activity post-emergence” value is listed as “very good herbicidal activity”.

`Cc1nc(N)nc(NC(c2cccc(C3CC3)c2)C2CC2)n1` (stereo not shown) [Product P4.1603]: the “herbicidal activity … for rice crops” value in assay [1] is “very good herbicidal activity”. Also, the “herbicidal activity post-emergence” value in assay [2] is “very good herbicidal activity”.

For the compound `Cc1nc(N)nc(NC(c2ccc(C3CC3)cc2)C2CC2)n1` (stereo not shown) [Product P4.1604], in assay [1], the “herbicidal activity … for rice crops” value is “very good herbicidal activity”. For the same compound, the “herbicidal activity post-emergence” value in assay [2] is recorded as “very good herbicidal activity”.

Consider `CCc1nc(N)nc(NCc2ccc(F)c(C(F)=C(F)F)c2)n1` [Product P6.5], for which, in assay [1], the “herbicidal activity … for rice crops” value is reported as “very good herbicidal activity”. Besides, the “herbicidal activity post-emergence” value in assay [2] is given as “very good herbicidal activity”.

`CCc1nc(N)nc(NCc2cc(F)c(C(F)=C(F)F)c(F)c2)n1` [Product P6.49]: in assay [1], the “herbicidal activity … for rice crops” value is on record as “very good herbicidal activity”. Besides, the “herbicidal activity post-emergence” value in assay [2] is given as “very good herbicidal activity”.

For `C#Cc1cc(CNc2nc(N)nc(CC)n2)ccc1F` [Product P6.309], in assay [1], the “herbicidal activity … for rice crops” value is recorded as “very good herbicidal activity”. The “herbicidal activity post-emergence” value in assay [2] is “very good herbicidal activity”.

For `C#Cc1c(F)cc(CNc2nc(N)nc(CC)n2)cc1F` [Product P6.352], the “herbicidal activity … for rice crops” value in assay [1] was “very good herbicidal activity”. Moreover, in assay [2], the “herbicidal activity post-emergence” value is recorded as “very good herbicidal activity”.

As for `CC#Cc1cc(CNc2nc(N)nc(CC)n2)ccc1F` [Product P6.384], the “herbicidal activity … for rice crops” value in assay [1] was “very good herbicidal activity”. Further, the “herbicidal activity post-emergence” value in assay [2] was “very good herbicidal activity”.

As for `CC#Cc1c(F)cc(CNc2nc(N)nc(CC)n2)cc1F` [Product P6.428], the “herbicidal activity … for rice crops” value in assay [1] is given as “very good herbicidal activity”. In addition, in assay [2], the “herbicidal activity post-emergence” value is given as “very good herbicidal activity”.

Turning to `CCc1nc(N)nc(NCc2ccc(F)c(C3CC3)c2)n1` [Product P6.916], in assay [1], the “herbicidal activity … for rice crops” value was “very good herbicidal activity”. The “herbicidal activity post-emergence” value in assay [2] is recorded as “very good herbicidal activity”.

For `CCc1nc(N)nc(NCc2cc(F)c(C3CC3)c(F)c2)n1` [Product P6.960], the “herbicidal activity … for rice crops” value in assay [1] was “very good herbicidal activity”. Besides, the “herbicidal activity post-emergence” value in assay [2] is “very good herbicidal activity”.

`CCc1nc(N)nc(NCc2cccc(C(F)=C(F)F)c2)n1` [Product P6.1567]: the “herbicidal activity … for rice crops” value in assay [1] is reported as “very good herbicidal activity”. Moreover, the “herbicidal activity post-emergence” value in assay [2] is “very good herbicidal activity”.

With `CCc1nc(N)nc(NCc2ccc(C(F)=C(F)F)cc2)n1` [Product P6.1568], the “herbicidal activity … for rice crops” value in assay [1] is on record as “very good herbicidal activity”. For the same compound, in assay [2], the “herbicidal activity post-emergence” value is “very good herbicidal activity”.

Turning to `C#Cc1cccc(CNc2nc(N)nc(CC)n2)c1` [Product P6.1579], the “herbicidal activity … for rice crops” value in assay [1] is given as “very good herbicidal activity”. The “herbicidal activity post-emergence” value in assay [2] is recorded as “very good herbicidal activity”.

For `C#Cc1ccc(CNc2nc(N)nc(CC)n2)cc1` [Product P6.1580], the “herbicidal activity … for rice crops” value in assay [1] is “very good herbicidal activity”. Besides, the “herbicidal activity post-emergence” value in assay [2] is recorded as “very good herbicidal activity”.

Take `CC#Cc1cccc(CNc2nc(N)nc(CC)n2)c1` [Product P6.1582]: in assay [1], the “herbicidal activity … for rice crops” value is reported as “very good herbicidal activity”. The “herbicidal activity post-emergence” value in assay [2] is on record as “very good herbicidal activity”.

As to `CC#Cc1ccc(CNc2nc(N)nc(CC)n2)cc1` [Product P6.1583], in assay [1], the “herbicidal activity … for rice crops” value was “very good herbicidal activity”. Besides, the “herbicidal activity post-emergence” value in assay [2] is “very good herbicidal activity”.

With `CCc1nc(N)nc(NCc2cccc(C3CC3)c2)n1` [Product P6.1603], the “herbicidal activity … for rice crops” value in assay [1] is listed as “very good herbicidal activity”. Moreover, the “herbicidal activity post-emergence” value in assay [2] is on record as “very good herbicidal activity”.

As for `CCc1nc(N)nc(NCc2ccc(C3CC3)cc2)n1` [Product P6.1604], in assay [1], the “herbicidal activity … for rice crops” value is recorded as “very good herbicidal activity”. Besides, in assay [2], the “herbicidal activity post-emergence” value was “very good herbicidal activity”.

Regarding `CCc1nc(N)nc(NC(C)c2ccc(F)c(C(F)=C(F)F)c2)n1` (stereo not shown) [Product P7.5], the “herbicidal activity … for rice crops” value in assay [1] was “very good herbicidal activity”. Besides, in assay [2], the “herbicidal activity post-emergence” value is on record as “very good herbicidal activity”.

With `CCc1nc(N)nc(NC(C)c2cc(F)c(C(F)=C(F)F)c(F)c2)n1` (stereo not shown) [Product P7.49], in assay [1], the “herbicidal activity … for rice crops” value is recorded as “very good herbicidal activity”. In addition, the “herbicidal activity post-emergence” value in assay [2] is “very good herbicidal activity”.

`C#Cc1cc(C(C)Nc2nc(N)nc(CC)n2)ccc1F` (stereo not shown) [Product P7.309]: in assay [1], the “herbicidal activity … for rice crops” value is “very good herbicidal activity”. The “herbicidal activity post-emergence” value in assay [2] was “very good herbicidal activity”.

With `C#Cc1ccc(C(C)Nc2nc(N)nc(CC)n2)cc1C` (stereo not shown) [Product P7.335], the “herbicidal activity … for rice crops” value in assay [1] is on record as “very good herbicidal activity”. Besides, in assay [2], the “herbicidal activity post-emergence” value was “very good herbicidal activity”.

Turning to `C#Cc1c(C)cc(C(C)Nc2nc(N)nc(CC)n2)cc1C` (stereo not shown) [Product P7.348], the “herbicidal activity … for rice crops” value in assay [1] was “very good herbicidal activity”. In assay [2], the “herbicidal activity post-emergence” value is “very good herbicidal activity”.

Regarding `C#Cc1cc(C#C)cc(C(C)Nc2nc(N)nc(CC)n2)c1` (stereo not shown) [Product P7.369], the “herbicidal activity … for rice crops” value in assay [1] is recorded as “very good herbicidal activity”. Also, the “herbicidal activity post-emergence” value in assay [2] is on record as “very good herbicidal activity”.

Consider `CC#Cc1cc(C(C)Nc2nc(N)nc(CC)n2)ccc1F` (stereo not shown) [Product P7.384], for which the “herbicidal activity … for rice crops” value in assay [1] is reported as “very good herbicidal activity”. For the same compound, in assay [2], the “herbicidal activity post-emergence” value is “very good herbicidal activity”.

As to `CC#Cc1c(F)cc(C(C)Nc2nc(N)nc(CC)n2)cc1F` (stereo not shown) [Product P7.428], in assay [1], the “herbicidal activity … for rice crops” value is listed as “very good herbicidal activity”. Moreover, the “herbicidal activity post-emergence” value in assay [2] is on record as “very good herbicidal activity”.

As to `C=C=Cc1c(F)cc(C(C)Nc2nc(N)nc(CC)n2)cc1F` (stereo not shown) [Product P7.656], the “herbicidal activity … for rice crops” value in assay [1] is given as “very good herbicidal activity”. Besides, the “herbicidal activity post-emergence” value in assay [2] is “very good herbicidal activity”.

Take `CCc1nc(N)nc(NC(C)c2ccc(F)c(C#CC(C)O)c2)n1` (stereo not shown) [Product P7.840]: the “herbicidal activity … for rice crops” value in assay [1] is given as “very good herbicidal activity”. The “herbicidal activity post-emergence” value in assay [2] is “very good herbicidal activity”.

`CCc1nc(N)nc(NC(C)c2cc(F)c(C3CC3)c(F)c2)n1` (stereo not shown) [Product P7.960]: the “herbicidal activity … for rice crops” value in assay [1] is on record as “very good herbicidal activity”. Besides, the “herbicidal activity post-emergence” value in assay [2] is on record as “very good herbicidal activity”.

As for `CCc1nc(N)nc(NC(C)c2cccc(C(F)=C(F)F)c2)n1` (stereo not shown) [Product P7.1567], the “herbicidal activity … for rice crops” value in assay [1] was “very good herbicidal activity”. The “herbicidal activity post-emergence” value in assay [2] is listed as “very good herbicidal activity”.

For `CCc1nc(N)nc(NC(C)c2ccc(C(F)=C(F)F)cc2)n1` (stereo not shown) [Product P7.1568], in assay [1], the “herbicidal activity … for rice crops” value is on record as “very good herbicidal activity”. In assay [2], the “herbicidal activity post-emergence” value was “very good herbicidal activity”.

For the compound `C#Cc1cccc(C(C)Nc2nc(N)nc(CC)n2)c1` (stereo not shown) [Product P7.1579], the “herbicidal activity … for rice crops” value in assay [1] is “very good herbicidal activity”. Moreover, the “herbicidal activity post-emergence” value in assay [2] is “very good herbicidal activity”.
